Source: PubChem BioAssay AID328 (DTP/NCI, 2004)
Values joined by “and” are separate entries in the source; they are usually repeats but may differ in a detail not shown here. Equal values may be shown once. Toxic doses and inconclusive results are not listed.

Tested on: BDF1 mice, P388 leukemia ip, median survival T/C
Assay: NCI In Vivo Anticancer Drug Screen. Data for tumor model P388 Leukemia (intraperitoneal) in B6D2F1 (BDF1) mice
Details: endpoint: median survival time, higher = longer survival
Summary of the method: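 Transplantable tumour in mice; compound vs vehicle dosing; survival scored; ratio of treated to control reported.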

SMILES: C[N+](C)(Cc1ccccc1)/N=C(\[O-])Cc1ccccc1
- T/C (dose: 50.0 mg/kg/injection, schedule: Q01DX001 (ip), vehicle: saline): 109 % of control
- T/C (dose: 100.0 mg/kg/injection, schedule: Q01DX001 (ip), vehicle: saline): 104 % of control

SMILES: CCC1/C=C/C=C/CC(C)C(O)C(C)(O)C(=O)C(C)C(O)C(C)C(=O)C(C)C(O)C(C)/C=C/C(=O)OC2C(C)C(CC1)OC1(OC(CC(C)O)C(C)CC1=O)C2C (stereo not drawn) (tested in a mixture with another compound)
- T/C (dose: 0.15 mg/kg/injection, schedule: Q01DX010 (ip), vehicle: carboxymethylcellulose (CMC)): 110 % of control
- T/C (dose: 0.15 mg/kg/injection, schedule: Q01DX010 (ip), vehicle: saline): 109 % of control
- T/C (dose: 0.3 mg/kg/injection, schedule: Q01DX010 (ip), vehicle: carboxymethylcellulose (CMC)): 110 % of control
- T/C (dose: 0.3 mg/kg/injection, schedule: Q01DX010 (ip), vehicle: saline): 150 % of control and 154 % of control
- T/C (dose: 0.6 mg/kg/injection, schedule: Q01DX010 (ip), vehicle: carboxymethylcellulose (CMC)): 120 % of control
- T/C (dose: 0.6 mg/kg/injection, schedule: Q01DX010 (ip), vehicle: saline): 154 % of control
- T/C (dose: 1.2 mg/kg/injection, schedule: Q01DX010 (ip), vehicle: carboxymethylcellulose (CMC)): 190 % of control
- T/C (dose: 1.2 mg/kg/injection, schedule: Q01DX010 (ip), vehicle: saline): 163 % of control
- T/C (dose: 2.5 mg/kg/injection, schedule: Q01DX009 (ip), vehicle: saline): 154 % of control
- T/C (dose: 2.5 mg/kg/injection, schedule: Q01DX010 (ip), vehicle: saline): 154 % of control
- T/C (dose: 5.0 mg/kg/injection, schedule: Q01DX009 (ip), vehicle: saline): 163 % of control
- T/C (dose: 37.0 micrograms/kg/injection, schedule: Q01DX010 (ip), vehicle: saline): 120 % of control
- T/C (dose: 150.0 micrograms/kg/injection, schedule: Q01DX010 (ip), vehicle: saline): 150 % of control

SMILES: C(/C=C/C=C/N1CCCCC1)=[N+]1CCCCC1
- T/C (dose: 0.13 mg/kg/injection, schedule: Q01DX009 (ip), vehicle: saline): 97 % of control
- T/C (dose: 0.25 mg/kg/injection, schedule: Q01DX009 (ip), vehicle: saline): 104 % of control
- T/C (dose: 0.5 mg/kg/injection, schedule: Q01DX009 (ip), vehicle: saline): 89 % of control
- T/C (dose: 1.0 mg/kg/injection, schedule: Q01DX009 (ip), vehicle: saline): 110 % of control

SMILES: Nc1nc(=S)c2ncn(C3OC(CO)C(O)C3O)c2[nH]1 (stereo not drawn)
- T/C (dose: 1.0 mg/kg/injection, schedule: Q01DX010 (ip), vehicle: saline): 118 % of control
- T/C (dose: 2.0 mg/kg/injection, schedule: Q01DX010 (ip), vehicle: saline): 118 % of control
- T/C (dose: 4.0 mg/kg/injection, schedule: Q01DX010 (ip), vehicle: saline): 100 % of control and 109 % of control
- T/C (dose: 8.0 mg/kg/injection, schedule: Q01DX010 (ip), vehicle: saline): 90 % of control and 100 % of control
- T/C (dose: 50.0 mg/kg/injection, schedule: Q04DX003 (ip), vehicle: saline): 118 % of control
- T/C (dose: 132.0 mg/kg/injection, schedule: Q04DX003 (ip), vehicle: saline with Tween-80): 122 % of control
- T/C (dose: 200.0 mg/kg/injection, schedule: Q01DX009 (ip), vehicle: saline): 117 % of control
- T/C (dose: 300.0 mg/kg/injection, schedule: Q04DX003 (ip), vehicle: saline with Tween-80): 122 % of control
- T/C (dose: 400.0 mg/kg/injection, schedule: Q01DX009 (ip), vehicle: saline): 111 % of control

SMILES: CC1C(=O)OC(C)(C)OC1=O
- T/C (dose: 25.0 mg/kg/injection, schedule: Q01DX009 (ip), vehicle: Klucel (hydroxypropylcellulose) (HPC)): 106 % of control
- T/C (dose: 25.0 mg/kg/injection, schedule: Q04DX003 (ip), vehicle: Klucel (hydroxypropylcellulose) (HPC)): 91 % of control
- T/C (dose: 50.0 mg/kg/injection, schedule: Q01DX009 (ip), vehicle: Klucel (hydroxypropylcellulose) (HPC)): 97 % of control
- T/C (dose: 50.0 mg/kg/injection, schedule: Q04DX003 (ip), vehicle: Klucel (hydroxypropylcellulose) (HPC)): 123 % of control
- T/C (dose: 100.0 mg/kg/injection, schedule: Q01DX009 (ip), vehicle: Klucel (hydroxypropylcellulose) (HPC)): 105 % of control
- T/C (dose: 100.0 mg/kg/injection, schedule: Q04DX003 (ip), vehicle: Klucel (hydroxypropylcellulose) (HPC)): 97 % of control
- T/C (dose: 200.0 mg/kg/injection, schedule: Q01DX009 (ip), vehicle: Klucel (hydroxypropylcellulose) (HPC)): 104 % of control
- T/C (dose: 200.0 mg/kg/injection, schedule: Q04DX003 (ip), vehicle: Klucel (hydroxypropylcellulose) (HPC)): 94 % of control
- T/C (dose: 400.0 mg/kg/injection, schedule: Q01DX009 (ip), vehicle: Klucel (hydroxypropylcellulose) (HPC)): 99 % of control
- T/C (dose: 400.0 mg/kg/injection, schedule: Q04DX003 (ip), vehicle: Klucel (hydroxypropylcellulose) (HPC)): 106 % of control
